In ChEMBL document CHEMBL4261593, “Synthesis and antibacterial activity of novel 3-O-arylalkylcarbamoyl-3-O-descladinosyl-9-O-(2-chlorobenzyl)oxime clarithromycin derivatives” (2018):
Values after ≈ are worked out from the molar mass of the structure shown.

Tests used:
Assay type in all cases: functional
[1] = system: Streptococcus pneumoniae; experiment: Antibacterial activity against erythromycin-resistant Streptococcus pneumoniae A22072 expressing mefA gene after 24 hrs by broth dilution assay; details: A22072, 24 h
[2] = system: Staphylococcus aureus; experiment: Antibacterial activity against penicillin-resistant Staphylococcus aureus ATCC 31007 after 24 hrs by broth dilution assay; details: ATCC 31007, 24 h
[3] = system: Staphylococcus aureus; experiment: Potency index, ratio of AZM MIC to compound MIC for antibacterial activity against penicillin-resistant Staphylococcus aureus ATCC 31007
[4] = system: Streptococcus pneumoniae; experiment: Antibacterial activity against erythromycin-resistant Streptococcus pneumoniae B1 expressing ermB gene after 24 hrs by broth dilution assay; details: B1, 24 h
[5] = system: Staphylococcus aureus; experiment: Potency index, ratio of CAM MIC to compound MIC for antibacterial activity against penicillin-resistant Staphylococcus aureus ATCC 31007
[6] = system: Staphylococcus aureus; experiment: Antibacterial activity against […] Staphylococcus aureus ATCC 29213 after 24 hrs by broth dilution assay; details: ATCC 29213, 24 h
[7] = system: Bacillus subtilis; experiment: Antibacterial activity against penicillin-susceptible Bacillus subtilis ATCC 9372 after 24 hrs by broth dilution assay; details: ATCC 9372, 24 h
[8] = system: Escherichia coli; experiment: Antibacterial activity against penicillin-susceptible Escherichia coli ATCC 25922 after 24 hrs by broth dilution assay; details: ATCC 25922, 24 h
[9] = system: Staphylococcus aureus; experiment: Antibacterial activity against erythromycin-susceptible Staphylococcus aureus ATCC 25923 after 24 hrs by broth dilution assay; details: ATCC 25923, 24 h
[10] = system: Streptococcus pyogenes; experiment: Antibacterial activity against erythromycin-resistant Streptococcus pyogenes 2 after 24 hrs by broth dilution assay; details: Streptococcus pyogenes, 2, 24 h
[11] = system: Streptococcus pneumoniae; experiment: Antibacterial activity against erythromycin-resistant Streptococcus pneumoniae AB11 expressing ermB and mefA genes after 24 hrs by broth dilution assay; details: AB11, 24 h
[12] = system: Pseudomonas aeruginosa; experiment: Antibacterial activity against penicillin-susceptible Pseudomonas aeruginosa ATCC 27853 after 24 hrs by broth dilution assay; details: ATCC 27853, 24 h
[13] = system: Streptococcus pyogenes; experiment: Antibacterial activity against erythromycin-susceptible Streptococcus pyogenes 1 after 24 hrs by broth dilution assay; details: Streptococcus pyogenes, 1, 24 h
[14] = system: Streptococcus pneumoniae; experiment: Potency index, ratio of AZM MIC to compound MIC for antibacterial activity against erythromycin-resistant Streptococcus pneumoniae A22072
[15] = system: Streptococcus pneumoniae; experiment: Potency index, ratio of CAM MIC to compound MIC for antibacterial activity against erythromycin-resistant Streptococcus pneumoniae A22072
[16] = system: Streptococcus pyogenes; experiment: Potency index, ratio of CAM MIC to compound MIC for antibacterial activity against erythromycin-resistant Streptococcus pyogenes 2
[17] = system: Streptococcus pyogenes; experiment: Potency index, ratio of AZM MIC to compound MIC for antibacterial activity against erythromycin-resistant Streptococcus pyogenes 2

SMILES | MIC [1] | MIC [2] | Ratio [3] | MIC [4] | Ratio [5] | MIC [6] | MIC [7] | MIC [8] | MIC [9] | MIC [10] | MIC [11] | MIC [12] | MIC [13] | Ratio [14] | Ratio [15] | Ratio [16] | Ratio [17]
CC[C@H]1OC(=O)[C@H](C)[C@@H](OC(=O)NCc2ccccc2)[C@H](C)[C@@H](O[C@@H]2O[C@H](C)C[C@H](N(C)C)[C@H]2O)[C@](C)(OC)C[C@@H](C)/C(=N/OCc2ccccc2Cl)[C@H](C)[C@@H](O)[C@]1(C)O | 0.5 µg/mL (≈ 0.58 µM) | 4 µg/mL (≈ 4.64 µM) | 64 | 128 µg/mL (≈ 148 µM) | 64 | 128 µg/mL (≈ 148 µM) | 2 µg/mL (≈ 2.32 µM) | 128 µg/mL (≈ 148 µM) | 8 µg/mL (≈ 9.28 µM) | 16 µg/mL (≈ 18.6 µM) | 128 µg/mL (≈ 148 µM) | 128 µg/mL (≈ 148 µM) | 2 µg/mL (≈ 2.32 µM) |  |  |  | 
CC[C@H]1OC(=O)[C@H](C)[C@@H](OC(=O)NCCc2ccc(F)cc2)[C@H](C)[C@@H](O[C@@H]2O[C@H](C)C[C@H](N(C)C)[C@H]2O)[C@](C)(OC)C[C@@H](C)/C(=N/OCc2ccccc2Cl)[C@H](C)[C@@H](O)[C@]1(C)O | 1 µg/mL (≈ 1.12 µM) | 4 µg/mL (≈ 4.47 µM) |  | 128 µg/mL (≈ 143 µM) |  | 128 µg/mL (≈ 143 µM) | 2 µg/mL (≈ 2.24 µM) | 128 µg/mL (≈ 143 µM) | 4 µg/mL (≈ 4.47 µM) | 8 µg/mL (≈ 8.94 µM) | 128 µg/mL (≈ 143 µM) | 128 µg/mL (≈ 143 µM) | 2 µg/mL (≈ 2.24 µM) |  |  |  | 
CC[C@H]1OC(=O)[C@H](C)[C@@H](OC(=O)NC2CC2)[C@H](C)[C@@H](O[C@@H]2O[C@H](C)C[C@H](N(C)C)[C@H]2O)[C@](C)(OC)C[C@@H](C)/C(=N/OCc2ccccc2Cl)[C@H](C)[C@@H](O)[C@]1(C)O | 0.125 µg/mL (≈ 0.154 µM) | 16 µg/mL (≈ 19.7 µM) |  | 128 µg/mL (≈ 158 µM) |  | 128 µg/mL (≈ 158 µM) | 4 µg/mL (≈ 4.92 µM) | 128 µg/mL (≈ 158 µM) | 8 µg/mL (≈ 9.85 µM) | 16 µg/mL (≈ 19.7 µM) | 128 µg/mL (≈ 158 µM) | 128 µg/mL (≈ 158 µM) | 1 µg/mL (≈ 1.23 µM) | 32 | 16 |  | 
CCCNC(=O)O[C@H]1[C@H](C)[C@@H](O[C@@H]2O[C@H](C)C[C@H](N(C)C)[C@H]2O)[C@](C)(OC)C[C@@H](C)/C(=N/OCc2ccccc2Cl)[C@H](C)[C@@H](O)[C@](C)(O)[C@@H](CC)OC(=O)[C@@H]1C | 0.125 µg/mL (≈ 0.153 µM) | 16 µg/mL (≈ 19.6 µM) |  | 128 µg/mL (≈ 157 µM) |  | 128 µg/mL (≈ 157 µM) | 2 µg/mL (≈ 2.46 µM) | 128 µg/mL (≈ 157 µM) | 8 µg/mL (≈ 9.82 µM) | 8 µg/mL (≈ 9.82 µM) | 128 µg/mL (≈ 157 µM) | 128 µg/mL (≈ 157 µM) | 1 µg/mL (≈ 1.23 µM) | 32 | 16 | 32 | 32
CC[C@H]1OC(=O)[C@H](C)[C@@H](OC(=O)NCCc2ccc(OC)c(OC)c2)[C@H](C)[C@@H](O[C@@H]2O[C@H](C)C[C@H](N(C)C)[C@H]2O)[C@](C)(OC)C[C@@H](C)/C(=N/OCc2ccccc2Cl)[C@H](C)[C@@H](O)[C@]1(C)O | 1 µg/mL (≈ 1.07 µM) | 8 µg/mL (≈ 8.54 µM) |  | 128 µg/mL (≈ 137 µM) |  | 128 µg/mL (≈ 137 µM) | 4 µg/mL (≈ 4.27 µM) | 128 µg/mL (≈ 137 µM) | 8 µg/mL (≈ 8.54 µM) | 16 µg/mL (≈ 17.1 µM) | 128 µg/mL (≈ 137 µM) | 128 µg/mL (≈ 137 µM) | 1 µg/mL (≈ 1.07 µM) |  |  |  | 
CC[C@H]1OC(=O)[C@H](C)[C@@H](OC(=O)NCCc2ccccc2Cl)[C@H](C)[C@@H](O[C@@H]2O[C@H](C)C[C@H](N(C)C)[C@H]2O)[C@](C)(OC)C[C@@H](C)/C(=N/OCc2ccccc2Cl)[C@H](C)[C@@H](O)[C@]1(C)O | 1 µg/mL (≈ 1.1 µM) | 8 µg/mL (≈ 8.78 µM) |  | 128 µg/mL (≈ 141 µM) |  | 128 µg/mL (≈ 141 µM) | 2 µg/mL (≈ 2.2 µM) | 128 µg/mL (≈ 141 µM) | 8 µg/mL (≈ 8.78 µM) | 16 µg/mL (≈ 17.6 µM) | 128 µg/mL (≈ 141 µM) | 128 µg/mL (≈ 141 µM) | 2 µg/mL (≈ 2.2 µM) |  |  |  | 
CC[C@H]1OC(=O)[C@H](C)[C@@H](OC(=O)NCCc2cccc(OC)c2)[C@H](C)[C@@H](O[C@@H]2O[C@H](C)C[C@H](N(C)C)[C@H]2O)[C@](C)(OC)C[C@@H](C)/C(=N/OCc2ccccc2Cl)[C@H](C)[C@@H](O)[C@]1(C)O | 1 µg/mL (≈ 1.1 µM) | 4 µg/mL (≈ 4.41 µM) |  | 128 µg/mL (≈ 141 µM) |  | 128 µg/mL (≈ 141 µM) | 4 µg/mL (≈ 4.41 µM) | 128 µg/mL (≈ 141 µM) | 8 µg/mL (≈ 8.82 µM) | 8 µg/mL (≈ 8.82 µM) | 128 µg/mL (≈ 141 µM) | 128 µg/mL (≈ 141 µM) | 2 µg/mL (≈ 2.21 µM) |  |  |  | 
